From patent EP4656642A1, “ESTROGEN RECEPTOR PROTEOLYSIS TARGETING CHIMERA COMPOUND AND USE THEREOF” (GAN & LEE PHARM CO., LTD, priority 2023, dated 2024)

Assays:
Type in all cases: cell-based
MCF-7 cells = experiment: Inhibition of cell proliferation of MCF-7 cells (CCK-8, 9 days); details: treated for 9 days, CCK-8 kit (Table 6)
In short: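 MCF-7 cells seeded at 800 cells/well in DMEM with 10% FBS, exposed to a range of compound concentrations for 9 days at 37°C, 5% CO2. Viability read by CCK-8; IC50 derived for proliferation inhibition.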

ERα [1] = target: T1, ERα (Homo sapiens, UniProt P03372); experiment: Degradation of ERα in MCF-7 cells (immunoblotting, 4 h)
T1 sequence (P03372 1-595): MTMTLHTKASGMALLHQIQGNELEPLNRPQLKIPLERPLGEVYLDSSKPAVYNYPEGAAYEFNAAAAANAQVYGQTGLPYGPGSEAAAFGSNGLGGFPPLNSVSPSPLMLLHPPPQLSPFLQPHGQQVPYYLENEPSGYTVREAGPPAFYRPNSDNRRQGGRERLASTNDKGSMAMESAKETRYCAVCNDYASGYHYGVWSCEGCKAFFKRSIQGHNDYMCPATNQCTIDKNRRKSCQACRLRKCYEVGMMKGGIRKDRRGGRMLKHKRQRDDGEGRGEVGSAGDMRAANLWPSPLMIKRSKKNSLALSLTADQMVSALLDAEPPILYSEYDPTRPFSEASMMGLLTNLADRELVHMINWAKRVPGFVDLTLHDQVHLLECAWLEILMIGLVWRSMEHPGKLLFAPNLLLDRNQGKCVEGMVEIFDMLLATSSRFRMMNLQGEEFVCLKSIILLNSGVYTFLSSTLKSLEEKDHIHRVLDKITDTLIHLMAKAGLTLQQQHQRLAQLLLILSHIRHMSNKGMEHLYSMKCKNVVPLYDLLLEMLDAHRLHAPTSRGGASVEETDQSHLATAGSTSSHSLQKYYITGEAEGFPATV
In short: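 MCF-7 cells treated 4 h at 37°C with compounds at 0.15-1000nM final. ERα in lysates measured by immunoblot, with band grayscale normalized to an internal reference protein. Degradation rate calculated against DMSO-treated control.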

T-47D cells = experiment: Inhibition of cell proliferation in T-47D cells (CCK-8, 6 days); details: 6 days of treatment, Table 3
In short: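 T-47D cells at 3,000 cells/well in RPMI 1640 with 10% FBS were exposed to a concentration series of PROTAC compounds for 6 days at 37 °C, 5% CO2. Viability was read by CCK-8, and IC50 values were derived for proliferation inhibition.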

ERα [2] = target: T1, ERα; experiment: Degradation of ERα in T-47D cells (immunoblotting, 4 h); set-up: host or cells: T-47D
In short: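 T-47D cells were treated with compound (final 0.15-1000 nM, DMSO) for 4 h at 37°C, 5% CO2. Cells were lysed in RIPA buffer with protease inhibitor, and ERα protein in the cleared lysate was measured by immunoblotting.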

| SMILES | IC50 (MCF-7 cells) | Degradation rate (%) of ERα in MCF-7 cells (ERα [1]; 1nM compound) | Degradation rate (%) of ERα in MCF-7 cells (ERα [1]; 10nM compound) | IC50 (T-47D cells) | Degradation rate (%) of ERα in T-47D cells (ERα [2]; 1nM compound) | Degradation rate (%) of ERα in T-47D cells (ERα [2]; 10nM compound) |
| --- | --- | --- | --- | --- | --- | --- |
| O=C1CCC(N2Cc3cc4c(cc3C2=O)CCC2(CN(C(=O)C3CCN(c5ccc([C@@H]6c7ccc(O)cc7CC[C@@H]6c6ccccc6)cc5)CC3)C2)O4)C(=O)N1 (stereo partly drawn) [A50] | 4.08 µM | 11% | 27% | 0.00416 µM | 24% | 53% |
| O=C1CCC(N2Cc3c(ccc4c3OCC43CCN(C(=O)c4ccc(CN5CCN(c6ccc([C@@H]7c8ccc(O)cc8CC[C@@H]7c7ccccc7)cc6)CC5)nc4)CC3)C2=O)C(=O)N1 (stereo partly drawn) [B47] | 27.1 µM | 28% | 33% | 0.00129 µM | 59% | 65% |
| O=C1CCC(N2Cc3c(ccc4c3OCC43CCN([C@H]4CCN(C5CC6(CCN(c7ccc([C@@H]8c9ccc(O)cc9CC[C@@H]8c8ccccc8)cc7)CC6)C5)C[C@H]4F)CC3)C2=O)C(=O)N1 (stereo partly drawn) [H36] | 0.0724 µM | 24% | 70% | 0.00106 µM | 21% | 75% |
| O=C1CCC(N2Cc3c(ccc4c3OCC43CCN(C(=O)[C@H]4CC[C@@H](N(CC5CC5)C5CCN(c6ccc([C@@H]7c8ccc(O)cc8CC[C@@H]7c7ccccc7)cc6)CC5)CC4)CC3)C2=O)C(=O)N1 (stereo partly drawn) [B48] | 0.0335 µM | 63% | 74% | 0.00435 µM | 61% | 80% |
| O=C1CCC(N2Cc3cc4c(cc3C2=O)OC2(CC4)CN(C3CC4(C3)CC3(CCN(c5ccc([C@@H]6c7ccc(O)cc7CC[C@@H]6c6ccccc6)cc5)CC3)C4)C2)C(=O)N1 (stereo partly drawn) [H25] | 1.72 µM | -9% | -50% | 0.00602 µM | 23% | 48% |
| O=C1CCC(N2Cc3c(ccc4c3OCC43CCN(C4CCN(C(=O)c5ccc([C@@H]6c7ccc(O)cc7CC[C@@H]6c6ccccc6)cc5)CC4)CC3)C2=O)C(=O)N1 (stereo partly drawn) [H9] | 5.02 µM | -39% | -54% | 0.594 µM | -3% | -31% |
| C[C@@H]1Cc2c(ccc3[nH]ncc23)[C@@H](c2c(F)cc(N3CCC(C(=O)N4CCC(N5CCC6(CC5)COc5c6ccc6c5CN(C5CCC(=O)NC5=O)C6=O)CC4)CC3)cc2F)N1CC(F)F (stereo partly drawn) [B38] | 0.0905 µM | 63% | 57% | 0.00123 µM | 57% | 63% |
| C[C@@H]1Cc2c([nH]c3ccccc23)[C@@H](c2c(F)cc(N3CCC(C(=O)N4CCC(N5CCC6(CC5)COc5c6ccc6c5CN(C5CCC(=O)NC5=O)C6=O)CC4)CC3)cc2F)N1CC(F)F (stereo partly drawn) [A106] | 0.19 µM | 19% | 62% | 0.0012 µM | 43% | 74% |
| COC(=O)[C@@H]1C[C@H](N2CCC3(CC2)COc2c3ccc3c2CN(C2CCC(=O)NC2=O)C3=O)CCN1C1CC2(CCN(c3ccc([C@@H]4c5ccc(O)cc5CC[C@@H]4c4ccccc4)cc3)CC2)C1 (stereo partly drawn) [H31] | 0.0433 µM | 46% | 83% | 0.0018 µM | 55% | 85% |
| O=C1CCC(N2Cc3c(ccc4c3OCC43CCN(C(=O)CN(CC4CC4)CC4CCN(c5ccc([C@@H]6c7ccc(O)cc7CC[C@@H]6c6ccccc6)cc5)CC4)CC3)C2=O)C(=O)N1 (stereo partly drawn) [J16] | 2.25 µM | 17% | 47% | 0.00158 µM | 35% | 68% |
| O=C1CCC(N2Cc3cc4c(cc3C2=O)OC2(CC4)CN(C(=O)C3CC4(CCN(c5ccc([C@@H]6c7ccc(O)cc7CC[C@@H]6c6ccccc6)cc5)CC4)C3)C2)C(=O)N1 (stereo partly drawn) [A49] | 11.1 µM | 9% | 37% | 0.00963 µM | 17% | 48% |
| O=C1CCC(N2Cc3c(ccc4c3OCC43CCN(CCN4CCN(c5ccc([C@@H]6c7ccc(O)cc7CC[C@@H]6c6ccccc6)cc5)CC4)CC3)C2=O)C(=O)N1 (stereo partly drawn) [H20] | 1.32 µM | -18% | -14% | 0.00122 µM | 13% | -14% |
| O=C1CCC(N2Cc3c(ccc4c3OCC43CCN(C4CC5(C4)CC4(CCN(c6ccc([C@@H]7c8ccc(O)cc8CC[C@@H]7c7ccccc7)cc6)CC4)C5)CC3)C2=O)C(=O)N1 (stereo partly drawn) [G6] | 25.4 µM | 8% | 46% | 0.00421 µM | 33% | 71% |
| C[C@@H]1Cc2c(ccc3[nH]ncc23)[C@@H](c2c(F)cc(N3CCN(C[C@H]4CC[C@H](C(=O)N5CCC6(CC5)COc5c6ccc6c5CN(C5CCC(=O)NC5=O)C6=O)CC4)CC3)cc2F)N1CC(F)F (stereo partly drawn) [C12] | 0.18 µM | -34% | 22% | 0.0374 µM | 27% | 47% |

Next, values leading:

| IC50 (MCF-7 cells) | Degradation rate (%) of ERα in MCF-7 cells (ERα [1]; 1nM compound) | Degradation rate (%) of ERα in MCF-7 cells (ERα [1]; 10nM compound) | IC50 (T-47D cells) | Degradation rate (%) of ERα in T-47D cells (ERα [2]; 1nM compound) | Degradation rate (%) of ERα in T-47D cells (ERα [2]; 10nM compound) | SMILES |
| --- | --- | --- | --- | --- | --- | --- |
| 0.0325 µM | 31% | 46% | 0.00144 µM | 48% | 72% | O=C1CCC(N2C(=O)c3ccc4c(c3C2=O)OCC42CCN(C(=O)CN3CCC4(CCN(c5ccc([C@@H]6c7ccc(O)cc7CC[C@@H]6c6ccccc6)cc5)CC4)C3)CC2)C(=O)N1 (stereo partly drawn) [K24] |
| 0.757 µM | -20% | 6% | 0.00797 µM | -1% | 17% | O=C1CCC(N2Cc3ccc4c(c3C2=O)OCC42CCN(C3CCC4(CC3)CN(c3ccc([C@@H]5c6ccc(O)cc6CC[C@@H]5c5ccccc5)cc3)C4)CC2)C(=O)N1 (stereo partly drawn) [L25] |
| 0.132 µM | 54% | 73% | 0.003 µM | 64% | 85% | O=C1CCC(N2Cc3c(ccc4c3OCC43CCN(CCN4CCC5(CCN(c6ccc([C@@H]7c8ccc(O)cc8CC[C@@H]7c7ccccc7)cc6)CC5)C4)CC3)C2=O)C(=O)N1 (stereo partly drawn) [N4] |
| 0.925 µM | -11% | -6% | 0.0179 µM | 14% | 29% | O=C1CCC(N2Cc3ccc4c(c3C2=O)CC2(CCN(C3CCC5(CC3)CN(c3ccc([C@@H]6c7ccc(O)cc7CC[C@@H]6c6ccccc6)cc3)C5)CC2)CO4)C(=O)N1 (stereo partly drawn) [L10] |
| 0.0341 µM | 58% | 69% | 0.00179 µM | 63% | 82% | O=C1CCC(N2Cc3c(ccc4c3OCC43CCN(C(=O)C(=O)N4CCC5(CCN(c6ccc([C@@H]7c8ccc(O)cc8CC[C@@H]7c7ccccc7)cc6)CC5)C4)CC3)C2=O)C(=O)N1 (stereo partly drawn) [N5] |
| 0.039 µM | 29% | 51% | 0.00709 µM | 29% | 64% | O=C1CCC(N2Cc3c(ccc4c3OCC43CCN(C4CC5(CCN(c6ccc([C@@H]7c8ccc(O)cc8CC[C@@H]7c7ccccc7)cc6)CC5)C4)CC3)C2=O)C(=O)N1 (stereo partly drawn) [L16] |
